Assay results reported in patent US8450479B2, “3-substituted-4-oxo-3,4-dihydro-imidazo[5,1-d][1,2,3,5-tetrazine-8-carboxylic acid amides and their use” (Pharminox Limited, priority 2007, dated 2013).
“And” between values parts separate entries of the source, which are not always exact repeats. Equal values may be shown once. Read-outs that look alike come from different tables or passages of the source.

Tests used:
Assay in all cases: MTT assay for 7-day toxicity assay
Type in all cases: cell-based
[1] = system: Glioma SNB19VR (MGMT−) (TMZ resistant)
[2] = system: Glioma U373VR (MGMT low) (TMZ resistant)
[3] = system: Melanoma SKMEL-28 (MMR proficient)
Procedure, shortened: (§1)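 Cells seeded at 400 cells/well, attached overnight, then exposed to compound at 0.5–1000 μM final for 7 days at 37 °C, 5% CO2. Viability read by MTT, with a day-0 plate fixed at drug addition as reference.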

[4] = system: Breast MCF-7 (MMR proficient)
Procedure, shortened: as §1

[5] = 168 h, Glioma SNB19VR (MGMT−, TMZ resistant), 7-day MTT, single determinations, read-out: GI50
[6] = 168 h, Glioma U373VR (MGMT low, TMZ resistant), 7-day MTT, single determinations, read-out: GI50
[7] = Homo sapiens, SK-MEL-28, 168 h, Melanoma SKMEL-28 (MMR proficient), 7-day MTT, single determinations, read-out: GI50
[8] = Glioma SNB19VR (MGMT−, TMZ resistant), 7-day MTT, single determinations, read-out: GI50
[9] = Melanoma SKMEL-28 (MMR proficient), 7-day MTT, single determinations, read-out: GI50
[10] = Glioma U373VR (MGMT low, TMZ resistant), 7-day MTT, single determinations, read-out: GI50
[11] = Glioma SNB19VR (MGMT−) (TMZ resistant), read-out: GI50
[12] = Homo sapiens, SK-MEL-28, Melanoma SKMEL-28 (MMR proficient), read-out: GI50
[13] = Melanoma SKMEL-28 (MMR proficient), read-out: GI50
[14] = Homo sapiens, MCF7, Breast MCF-7 (MMR proficient), read-out: GI50
[15] = Glioma U373VR (MGMT low) (TMZ resistant), read-out: GI50

C[C@H](c1ccccc1)n1nnc2c(C(N)=O)ncn2c1=O [BB-001, (R)-3-(-1-Phenylethyl)-8-carbamoylimidazotetrazin-4-one]
GI50 [1, 5]: 46.6 µM
GI50 [2, 6]: 63.7 µM

C#CCn1nnc2c(C(N)=O)ncn2c1=O [EE-001, 3-Propargyl-8-carbamoylimidazotetrazin-4-one]
GI50 [1, 5]: 54.9 µM
GI50 [3, 7]: 48.5 µM
GI50 [2, 6]: 40.3 µM

CCOC(=O)Cn1nnc2c(C(N)=O)ncn2c1=O [PX-016]
GI50 [1, 5]: 37.6 µM
GI50 [1, 8]: 62 µM
GI50 [3, 7]: 92.8 µM
GI50 [3, 9]: 91.3 µM
GI50 [2, 6]: 57.5 µM
GI50 [2, 10]: 71.1 µM

COCn1nnc2c(C(N)=O)ncn2c1=O [PX-020]
GI50 [1, 11]: 25.8 µM and 28.9 µM and 27.8 µM and 29.2 µM and 16.8 µM
GI50 [3, 12]: 56.1 µM
GI50 [3, 13]: 55.1 µM
GI50 [4, 14]: 33.4 µM

C[Si](C)(C)CCOCn1nnc2c(C(N)=O)ncn2c1=O [PX-021]
GI50 [3, 12]: 47.1 µM
GI50 [3, 13]: 56.8 µM
GI50 [4, 14]: 30.3 µM

NC(=O)c1ncn2c(=O)n(CCl)nnc12 [PX-030]
GI50 [2, 15]: 28.9 µM and 34.5 µM

Cn1nnc2c(C(N)=O)ncn2c1=O [TMZ, 3-Methyl-4-oxo-3,4-dihydro-imidazo[5,1-d][1,2,3,5]tetrazine-8-carboxylic acid amide, reference compound]
GI50 [1, 5]: 314 µM
GI50 [1, 11]: 280 µM
GI50 [1, 8]: 251 µM and 275 µM and 282 µM (2×) and 294 µM and 263 µM
GI50 ([1]; Glioma SNB19VR (MGMT−, TMZ resistant), average of Table 1, read-out: TMZ GI50 Average): 280 µM
GI50 [3, 7]: 419 µM
GI50 ([3]; Homo sapiens, SK-MEL-28, Melanoma SKMEL-28 (MMR proficient), average of Table 1, read-out: TMZ GI50 Average): 431 µM
GI50 [3, 12]: 431 µM
GI50 [3, 9]: 443 µM
GI50 ([4]; Breast MCF-7 (MMR proficient), 7-day MTT, single determinations): 424 µM
GI50 ([4]; Homo sapiens, MCF7, 168 h, Breast MCF-7 (MMR proficient), 7-day MTT, single determinations): 342 µM
GI50 ([4]; Homo sapiens, MCF7, read-out: TMZ GI50 Average, Breast MCF-7 (MMR proficient), average of Table 1): 383 µM
GI50 ([4]; Homo sapiens, MCF7, Breast MCF-7 (MMR proficient)): 383 µM
GI50 [2, 6]: 316 µM
GI50 [2, 15]: 289 µM
GI50 [2, 10]: 293 µM and 234 µM and 328 µM and 299 µM and 258 µM and 326 µM and 257 µM
GI50 ([2]; Glioma U373VR (MGMT low, TMZ resistant), average of Table 1, read-out: TMZ GI50 Average): 289 µM
